Holding throughout (assay type): in vivo, BALB/c mice
Assay [1] deals with Trypanosoma cruzi. As to the kind of experiment: Parasitemia by direct microscopic count of blood in mice infected with Trypanosoma cruzi. Conditions: 3-21 dpi. On the procedure:
(§1) Male BALB/c mice (approximately 7-8 weeks) were infected intraperitoneally with 10^4 parasites per mouse. Treatment started 24 hours after infection. The administration of vitamin C (i.e., L-ascorbic acid), vitamin K3 (i.e., 2-methyl-1,4-naphthoquinone or menadione), APATONE®, and benznidazole, alone or in combination, were administered once a day orally in different concentrations.
(§2) The mice were divided into the following groups and each group contained seven mice: • i. infected and not treated; • ii. infected and treated with 200 mg/kg of vitamin C; • iii. infected and treated with 3.5 mg/kg of vitamin K3; • iv. infected and treated with APATONE® (200 mg/kg of vitamin C and 3.5 mg/kg of vitamin K3); • v. infected and treated with APATONE® (200 mg/kg of vitamin C and 3.5 mg/kg of vitamin K3) plus 5 mg/kg benznidazole; • vi. infected and treated with benznidazole at 5 mg/kg; • vii. infected and treated with benznidazole at 100 mg/kg; and • viii. not infected and not treated.
Parasitemia levels were individually checked every day starting from 3 days postinfection (dpi) over a 21-day period by direct microscopic analysis of 5 μL blood drawn by puncture of the tail tip of each mouse. The parasites present in 50 fields were counted in 40× objective. Mortality was checked daily until 21 dpi and was expressed as a percentage of survival. […]

The subject of assay [2] is Trypanosoma cruzi. Put plainly: Survival/mortality of mice with acute Trypanosoma cruzi infection. Conditions: for mortality: vitamin C 200 mg/kg or vitamin K3 3.5 mg/kg alone, orally once a day. The method, then:
as §1, §2
Parasitemia levels were individually checked every day starting from 3 days postinfection (dpi) over a 21-day period by direct microscopic analysis of 5 μL blood drawn by puncture of the tail tip of each mouse. The parasites present in 50 fields were counted in 40× objective. Mortality was checked daily until 21 dpi and was expressed as a percentage of survival. All assays were carried out after the approval of the Ethical Conduct on the use of Animals in Experiments (CEAE) of UE111, protocol number CEUA 6642060717.

Another assay deals with IL-6. As to the kind of experiment: Heart cytokine level (cytokine bead array, flow cytometry) in T. cruzi infected mice: IL-6. On the procedure:
(§3) Cytokine analysis was performed on the mice infected with T. cruzi. A cytokine bead (CBA) kit was used to quantify the levels of Th1 cytokines (IL-2, TNF-α, and INF-γ), Th2 (IL-4, IL-5, and IL-10A), and Th17 (IL-17) by flow cytometry. Seven bead populations with different fluorescence intensities were conjugated to a specific capture antibody for each cytokine, mixed to the CBA and read […] FL3 channel of a FACSCalibur flow cytometer. The populations of beads were visualized according to their respective fluorescence intensities: from less bright to brighter.
(§4) Acquisition tubes were prepared with: 50 μL of a sample, 50 μL of beads, and 50 μL of Th1/Th2/Th17 PE (Mouse Th1/Th2/Th17 PE Detection Reagent/1 vial, 4 mL). The same procedure was performed to obtain a standard curve. The samples in the tubes were homogenized and incubated for three hours at room temperature in dark. The data acquisition and analysis were performed using a FACSCalibur flow cytometer equipped with a CellQuest software.
(§5) The levels of proinflammatory (IL-6, TNF-α, INF-γ, IL-2, and IL-17) and anti-inflammatory cytokines (IL-4 and IL-10) in heart (FIG. 3) in blood were determined on the mice infected with T. cruzi. […] However, the levels of IL-6 and TNF-α in this group were still high compared with the uninfected and untreated group. […] Thus, it is likely that the high levels of IL-6 and TNF-α in the mice infected with T. cruzi and treated with benznidazole (5 mg) are related to the inflammatory process induced by the parasite in the bloodstream. […] Thus, it is likely that the high levels of IL-6 and TNF-α in the mice infected with T. cruzi and treated with benznidazole (100 mg) are related to the proinflammatory activity of benznidazole (a side effect). […] The levels of IL-6, TNF-α, and IFN-γ in the group treated with APATONE® and benznidazole (5 mg/kg/day) in combination are similar to the levels of IL-6, TNF-α and IFN-γ in the uninfected and untreated group.
(In general: In flow cytometry, cells or beads pass a laser one at a time.)

The test system of a further assay is TNF-α. As to the kind of experiment: Heart cytokine level (cytokine bead array, flow cytometry) in T. cruzi infected mice: TNF-α. The method, then:
as §3, §4, §5

Setting [3] is: benznidazole alone at 5 mg/kg, seven mice per group, until 21 dpi.

The structures appear in SMILES notation. “Also recorded” adds a separate entry of the source.

For the compound `O=C(Cn1ccnc1[N+](=O)[O-])NCc1ccccc1` [benznidazole], the “parasites in the bloodstream (parasitemia)” value was “did not decrease the amount of parasites” in the assay with Trypanosoma cruzi [1] (benznidazole alone at 5 mg/kg orally once a day, 5 mg/kg) and “no parasite was observed; also recorded: no parasite detected” in the assay on Trypanosoma cruzi [1] (benznidazole alone at 100 mg/kg orally once a day, 100 mg/kg). In the assay with Trypanosoma cruzi [2] (setting [3]), the mice remaining is recorded as 4 mice. The mice that died result with Trypanosoma cruzi [2] (setting [3]) was “Three mice died”; in the assay with Trypanosoma cruzi [2] (benznidazole alone at 100 mg/kg, until 21 dpi) it was “No mice died”. The “level of IL-6 in heart compared with the infected and untreated group” value in the assay with IL-6 (benznidazole at 5 mg) and with IL-6 (benznidazole at 100 mg) was “significant decrease” each time. The “level of IL-6 in heart compared with the uninfected and untreated group” value in the assay with IL-6 (benznidazole at 5 mg) and in the assay on IL-6 (benznidazole at 100 mg) was “still high” throughout. Further, the “level of TNF-α in heart compared with the infected and untreated group” value with TNF-α (benznidazole at 5 mg) and in the assay with TNF-α (benznidazole at 100 mg) was “significant decrease” each time. Further, the “level of TNF-α in heart compared with the uninfected and untreated group” value in the assay with TNF-α (benznidazole at 5 mg) and in the assay on TNF-α (benznidazole at 100 mg) was “still high” each time.
Regarding `O=C1O[C@H]([C@@H](O)CO)C(O)=C1O` [vitamin C, L-ascorbic acid], the mortality result with Trypanosoma cruzi [2] is “died from day 14”.
`CC1=CC(=O)c2ccccc2C1=O` [vitamin K3, 2-methyl-1,4-naphthoquinone]: the mortality result in the assay with Trypanosoma cruzi [2] is reported as “died from day 14”.

(Values after US12295957B2, “Ascorbic acid and quinone compounds in combination with an antiparasitic agent for treating a parasitic disease” (IC-MedTech Corp., priority 2018, dated 2025).)
